Series [1] in a line: The drug is tested on Z-030 corresponding to mouse gut metagenome with ENA study accession number: PRJEB37062 and ENA sample accession number: ERS12561829 for biotransformation under anaerobic condition. The drug concentrations were measured over 9 timepoints collected between 0 and 24 hours of incubation by liquid-chromatography-coupled mass spectrometry (LC–MS). To be noted: 2 µM.

A short description of series [2]: The drug is tested on Z-025 corresponding to rabbit gut metagenome with ENA study accession number: PRJEB37062 and ENA sample accession number: ERS12561824 for biotransformation under anaerobic condition. The drug concentrations were measured over 9 timepoints collected between 0 and 24 hours of incubation by liquid-chromatography-coupled mass spectrometry (LC–MS). The note with it: 2 µM.

Series [3] in a line: The drug is tested on Z-016 corresponding to mouse gut metagenome with ENA study accession number: PRJEB37062 and ENA sample accession number: ERS12561815 for biotransformation under anaerobic condition. The drug concentrations were measured over 9 timepoints collected between 0 and 24 hours of incubation by liquid-chromatography-coupled mass spectrometry (LC–MS). To be noted: 2 µM.

The nature of series [4]: The drug is tested on Z-008 corresponding to metagenome with ENA study accession number: PRJEB37062 and ENA sample accession number: ERS12561808 for biotransformation under anaerobic condition. The drug concentrations were measured over 9 timepoints collected between 0 and 24 hours of incubation by liquid-chromatography-coupled mass spectrometry (LC–MS). To be noted: 2 µM.

Series [5] is described as follows: The drug is tested on Z-005 corresponding to metagenome with ENA study accession number: PRJEB37062 and ENA sample accession number: ERS12561805 for biotransformation under anaerobic condition. The drug concentrations were measured over 9 timepoints collected between 0 and 24 hours of incubation by liquid-chromatography-coupled mass spectrometry (LC–MS). To be noted: 2 µM.

Series [6] can be described thus: The drug is tested on Z-004 corresponding to metagenome with ENA study accession number: PRJEB37062 and ENA sample accession number: ERS12561804 for biotransformation under anaerobic condition. The drug concentrations were measured over 9 timepoints collected between 0 and 24 hours of incubation by liquid-chromatography-coupled mass spectrometry (LC–MS). To be noted: 2 µM.

The nature of series [7]: The drug is tested on WLS-310 corresponding to human gut metagenome with ENA study accession number: PRJEB37062 and ENA sample accession number: ERS12561785 for biotransformation under anaerobic condition. The drug concentrations were measured over 9 timepoints collected between 0 and 24 hours of incubation by liquid-chromatography-coupled mass spectrometry (LC–MS). To be noted: 2 µM.

Series [8] is described as follows: The drug is tested on WLS-098 corresponding to human gut metagenome with ENA study accession number: PRJEB37062 and ENA sample accession number: ERS12561754 for biotransformation under anaerobic condition. The drug concentrations were measured over 9 timepoints collected between 0 and 24 hours of incubation by liquid-chromatography-coupled mass spectrometry (LC–MS). The note with it: 2 µM.

A short description of series [9]: The drug is tested on WLS-090 corresponding to human gut metagenome with ENA study accession number: PRJEB37062 and ENA sample accession number: ERS12561753 for biotransformation under anaerobic condition. The drug concentrations were measured over 9 timepoints collected between 0 and 24 hours of incubation by liquid-chromatography-coupled mass spectrometry (LC–MS). The note with it: 2 µM.

Series [10] in a line: The drug is tested on WLS-086 corresponding to human gut metagenome with ENA study accession number: PRJEB37062 and ENA sample accession number: ERS12561752 for biotransformation under anaerobic condition. The drug concentrations were measured over 9 timepoints collected between 0 and 24 hours of incubation by liquid-chromatography-coupled mass spectrometry (LC–MS). To be noted: 2 µM.

Series [11] in a line: The drug is tested on WLS-039 corresponding to human gut metagenome with ENA study accession number: PRJEB37062 and ENA sample accession number: ERS12561746 for biotransformation under anaerobic condition. The drug concentrations were measured over 9 timepoints collected between 0 and 24 hours of incubation by liquid-chromatography-coupled mass spectrometry (LC–MS). The note with it: 2 µM.

Series [12] in a line: The drug is tested on WLS-006 corresponding to human gut metagenome with ENA study accession number: PRJEB37062 and ENA sample accession number: ERS12561741 for biotransformation under anaerobic condition. The drug concentrations were measured over 9 timepoints collected between 0 and 24 hours of incubation by liquid-chromatography-coupled mass spectrometry (LC–MS). The note with it: 2 µM.

The conditions of series [13]: human gut metagenome, 24 h, 2 µM.
For series [14] the following is noted: human gut metagenome, 24 h, 2 µM. This is another data set of the same source.
The conditions of series [15]: human gut metagenome, 24 h, 2 µM. The source holds these as a separate data set.
For series [16] the following is noted: human gut metagenome, 24 h, 2 µM. This is another data set of the same source.
The conditions of series [17]: human gut metagenome, 24 h, 2 µM. This is another data set of the same source.
For series [18] the following is noted: human gut metagenome, 24 h, 2 µM. This is another data set of the same source.
For series [19] the following is noted: human gut metagenome, 24 h, 2 µM. The source holds these as a separate data set.
For series [20] the following is noted: human gut metagenome, 24 h, 2 µM. The source holds these as a separate data set.

This note sets out measurements from ChEMBL document CHEMBL5724914, “Linking interpersonal differences in gut microbiota composition and drug biotransformation activity” (2024).

Molecules are shown by their SMILES.
Also: call rule not given here.

For the compound `CNS(=O)(=O)Cc1ccc2[nH]cc(CCN(C)C)c2c1.O=C(O)CCC(=O)O` [SUMATRIPTAN SUCCINATE], the “Bacterial Biotransformation” value in series [1], in [2], in [3], in [4], in series [5] and in [6] was “Compound NOT metabolized” each time. In addition, the “Bacterial Biotransformation” value in [7] is recorded as “Compound NOT metabolized”; in series [8] it was “Compound metabolized”; in series [9], “Compound metabolized”; in [10], “Compound metabolized”; in series [11] it was “Compound NOT metabolized”; in [12] it was “Compound NOT metabolized”. Further, the “Bacterial Biotransformation” value in series [13] is recorded as “Compound NOT metabolized”; in [14] it was “Compound NOT metabolized”; in series [15], “Compound NOT metabolized”; in [16] it was “Compound metabolized”; in series [17], “Compound NOT metabolized”; in series [18] it was “Compound NOT metabolized”. Moreover, the “Bacterial Biotransformation” value in [19] is recorded as “Compound NOT metabolized”; in series [20] it was “Compound metabolized”.

`Nc1c2c(nc3ccccc13)CCCC2` [TACRINE]: the “Bacterial Biotransformation” value in series [1], in series [2], in series [3], in series [4], in series [5] and in series [6] was “Compound NOT metabolized” throughout. Moreover, the “Bacterial Biotransformation” value in [7] was “Compound metabolized”; in [8] it was “Compound metabolized”; in series [9], “Compound metabolized”; in [10] it was “Compound metabolized”; in series [11] it was “Compound NOT metabolized”; in series [12] it was “Compound NOT metabolized”. Also, the “Bacterial Biotransformation” value in series [13] is “Compound NOT metabolized”; in [14], “Compound NOT metabolized”; in series [15], “Compound NOT metabolized”; in [16] it was “Compound metabolized”; in series [17], “Compound NOT metabolized”; in [18], “Compound metabolized”. Moreover, the “Bacterial Biotransformation” value in [19] was “Compound NOT metabolized”; in [20] it was “Compound metabolized”.

Regarding `Cc1ccc(S(=O)(=O)NC(=O)NN2CCCCCC2)cc1` [TOLAZAMIDE], the “Bacterial Biotransformation” value in [1] was “Compound NOT metabolized”; in series [2] it was “Compound metabolized”; in series [3], “Compound metabolized”; in series [4] it was “Compound NOT metabolized”; in [5] it was “Compound metabolized”; in [6], “Compound metabolized”. The “Bacterial Biotransformation” value in series [7], in [8], in [9], in series [10], in [11] and in series [12] was “Compound metabolized” each time. The “Bacterial Biotransformation” value in series [13] was “Compound metabolized”; in series [14], “Compound NOT metabolized”; in series [15] it was “Compound metabolized”; in [16], “Compound metabolized”; in series [17], “Compound metabolized”; in series [18], “Compound metabolized”. The “Bacterial Biotransformation” value in series [19] and in series [20] was “Compound metabolized” each time.

Take `CCOC(=O)[C@H](CCc1ccccc1)N[C@@H](C)C(=O)N1[C@H](C(=O)O)C[C@H]2CCCC[C@@H]21` [TRANDOLAPRIL]: the “Bacterial Biotransformation” value in series [1] is listed as “Compound NOT metabolized”; in [2] it was “Compound NOT metabolized”; in series [3], “Compound NOT metabolized”; in series [4] it was “Compound NOT metabolized”; in series [5] it was “Compound metabolized”; in [6], “Compound metabolized”. The “Bacterial Biotransformation” value in series [7], in series [8], in series [9], in [10], in [11] and in [12] was “Compound metabolized” each time. Besides, the “Bacterial Biotransformation” value in series [13] is recorded as “Compound NOT metabolized”; in series [14] it was “Compound NOT metabolized”; in series [15] it was “Compound NOT metabolized”; in series [16], “Compound metabolized”; in [17] it was “Compound metabolized”; in series [18] it was “Compound metabolized”. Also, the figures for the “Bacterial Biotransformation” value in series [19] and in [20] were “Compound NOT metabolized” and “Compound metabolized”, respectively.

In the case of `CC(CN(C)C)CN1c2ccccc2CCc2ccccc21.O=C(O)/C=C\C(=O)O` (stereo not given) [TRIMIPRAMINE MALEATE], the “Bacterial Biotransformation” value in [1], in series [2], in series [3], in [4], in series [5] and in [6] was “Compound NOT metabolized” throughout. Further, the “Bacterial Biotransformation” value in series [7], in [8], in [9], in series [10], in series [11] and in [12] was “Compound metabolized” throughout. In addition, the “Bacterial Biotransformation” value is “Compound NOT metabolized” in series [13]; “Compound NOT metabolized” in series [14]; “Compound metabolized” in [15]; “Compound metabolized” in series [16]; “Compound NOT metabolized” in [17]; “Compound NOT metabolized” in [18]. In addition, the “Bacterial Biotransformation” value in series [19] and in [20] was “Compound metabolized” in each case.
